Data from patent US9776979B2, “EBI2 modulators” (Sanford-Burnham Medical Research Institute, priority 2013, dated 2017).

The compounds below were run against EBI2 (Homo sapiens, UniProt P32249) (assay: Cell-based luminescent assay (EBI2 modulation)). Settings: cell-based luminescence; 7a,25-OHC final assay concentration 80 nM; 60 minutes incubation; read-out: IC50.
Procedure, shortened: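 Cells plated overnight at 37° C, then exposed to compound at 4-5 uM final with 80 nM 7a,25-OHC agonist for 60 min at 37° C. Luminescence read after 60 min detection at 25° C in the dark; values normalized to neutral and stimulator controls and plate-pattern corrected.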

Sequence of EBI2 (P32249 whole entry): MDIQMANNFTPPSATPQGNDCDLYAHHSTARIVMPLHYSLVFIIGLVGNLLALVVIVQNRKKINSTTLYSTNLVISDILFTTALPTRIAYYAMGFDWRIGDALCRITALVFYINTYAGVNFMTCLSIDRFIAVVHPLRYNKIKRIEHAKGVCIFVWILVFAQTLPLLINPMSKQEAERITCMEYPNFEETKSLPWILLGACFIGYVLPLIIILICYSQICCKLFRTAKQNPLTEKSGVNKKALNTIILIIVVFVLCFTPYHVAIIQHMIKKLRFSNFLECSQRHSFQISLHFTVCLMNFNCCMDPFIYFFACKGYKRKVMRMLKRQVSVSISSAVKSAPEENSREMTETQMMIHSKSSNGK

Row | SMILES | IC50 [nM]
1 | O=C(/C=C/c1ccc(Br)cc1)N1CCN(Cc2ccc(Cl)cc2C(F)(F)F)CC1 [Compound C91, (2E)-3-(4-bromophenyl)-1-(4-{[4-chloro-2-(trifluoromethyl)phenyl]methyl}piperazinyl)prop-2-en-1-one] | < 100
2 | CC(C)c1ccc(CN2CCN(C(=O)/C=C/c3ccc(Br)cc3)CC2)cc1 [Compound C103, (2E)-3-(4-bromophenyl)-1-(4-{[4-(methylethyl)phenyl]methyl}piperazinyl)prop-2-en-1-one] | < 100
3 | Cc1ccc2c(c1)cc(C(=O)N1CCN(C(c3ccccc3)c3ccccc3)CC1)n2C [Compound C105, 1,5-dimethylindol-2-yl 4-(diphenylmethyl)piperazinyl ketone] | < 100
4 | O=C(/C=C/c1ccc(F)c(F)c1)N1CCN(C(c2ccccc2)c2ccccc2)CC1 [Compound C106, (2E)-3-(3,4-difluorophenyl)-1-[4-(diphenylmethyl)piperazinyl]prop-2-en-1-one] | < 100
5 | Cc1cc(C)cc(CN2CCN(C(=O)/C=C/c3ccc(Br)cc3)CC2)c1 [Compound C109, (2E)-1-{4-[(3,5-dimethylphenyl)methyl]piperazinyl}-3-(4-bromophenyl)prop-2-en-1-one] | < 100
6 | O=C(c1ccc2ncccc2c1)N1CCN(C(c2ccccc2)c2ccccc2)CC1 [Compound C110, 4-(diphenylmethyl)piperazinyl 6-quinolyl ketone] | < 100
7 | Cc1ccc2[nH]c(C(=O)N3CCN(Cc4ccc5c(c4)OCO5)CC3)cc2c1 [Compound C111, 4-(2H-benzo[d]1,3-dioxolan-5-ylmethyl)piperazinyl 5-methylindol-2-yl ketone] | < 100
8 | O=C(C#Cc1ccc2c(c1)OCO2)C1CCN(C(=O)c2ccc(F)cc2)CC1 [Compound C112, 3-(2H-benzo[3,4-d]1,3-dioxolen-5-yl)-1-{1-[(4-fluorophenyl)carbonyl](4-piperidyl)}prop-2-yn-1-one] | < 100
9 | O=C(/C=C/c1ccccc1F)N1CCN(C(c2ccccc2)c2ccccc2)CC1 [Compound C113, (2E)-1-[4-(diphenylmethyl)piperazinyl]-3-(2-fluorophenyl)prop-2-en-1-one] | < 100
10 | O=C(C#Cc1ccc2c(c1)OCO2)N1CCN(C(=O)c2ccc(Cl)cc2)CC1 [Compound C114, 3-(2H-benzo[3,4-d]1,3-dioxolen-5-yl)-1-{4-[(4-chlorophenyl)carbonyl]piperazinyl}prop-2-yn-1-one] | < 100
11 | O=C(c1ccc(I)cc1)N1CCN(C(=O)c2cc3cc(Cl)ccc3[nH]2)CC1 [Compound C115, 5-chloroindol-2-yl 4-[(4-iodophenyl)carbonyl]piperazinyl ketone] | < 100
12 | O=C(C#Cc1ccccc1)N1CCN(C(=O)c2ccc(F)cc2)CC1 [Compound C116, 1-{4-[(4-fluorophenyl)carbonyl]piperazinyl}-3-phenylprop-2-yn-1-one] | < 100
13 | O=C(C#Cc1cccc(Cl)c1)N1CCN(C(=O)c2ccc(C(F)(F)F)cc2)CC1 [Compound C117, 3-(3-chlorophenyl)-1-(4-{[4-(trifluoromethyl)phenyl]carbonyl}piperazinyl)prop-2-yn-1-one] | < 100
14 | CC(C)CC(=O)N1CCN(C(=O)/C=C/c2ccc(Br)cc2)CC1 [Compound C118, (2E)-3-(4-bromophenyl)-1-[4-(3-methylbutanoyl)piperazinyl]prop-2-en-1-one] | < 100
15 | O=C(c1ccc(F)cc1)N1CCN(C(=O)c2cc3cc(Cl)ccc3[nH]2)CC1 [Compound C119, 5-chloroindol-2-yl 4-[(4-fluorophenyl)carbonyl]piperazinyl ketone] | < 100

Other lines, results leading:

Row | IC50 [nM] | SMILES
16 | < 100 | O=C(/C=C/c1ccc(Br)cc1)N1CCN(C(=O)C2CCCC2)CC1 [Compound C82, (2E)-3-(4-bromophenyl)-1-[4-(cyclopentylcarbonyl)piperazinyl]prop-2-en-1-one]
17 | < 100 | O=C(C#Cc1ccc(C(F)(F)F)cc1)N1CCN(C(=O)c2ccc(C(F)(F)F)cc2)CC1 [Compound C84, 3-[4-(trifluoromethyl)phenyl]-1-(4-{[4-(trifluoromethyl)phenyl]carbonyl}piperazinyl)prop-2-yn-1-one]
18 | < 100 | O=C(c1cnc2cc(F)ccc2c1)N1CCN(C(c2ccccc2)c2ccccc2)CC1 [Compound C86, 4-(diphenylmethyl)piperazinyl 7-fluoro(3-quinolyl) ketone]
19 | < 100 | O=C(c1cc2ccccc2o1)N1CCN(C(c2ccccc2)c2ccccc2)CC1 [Compound C87, benzo[d]furan-2-yl 4-(diphenylmethyl)piperazinyl ketone]
20 | < 100 | O=C(c1cc2cc(Cl)ccc2[nH]1)N1CCN(S(=O)(=O)CCc2ccccc2)CC1 [Compound C88, 5-chloroindol-2-yl 4-[(2-phenylethyl)sulfonyl]piperazinyl ketone]
21 | < 100 | O=C(c1ccc(Cl)cc1)N1CCN(C(=O)c2cc3cc(Cl)ccc3[nH]2)CC1 [Compound C89, 5-chloroindol-2-yl 4-[(4-chlorophenyl)carbonyl]piperazinyl ketone]
22 | < 100 | O=C(C#Cc1cccc(Cl)c1Cl)N1CCN(C(=O)c2ccc(F)cc2C(F)(F)F)CC1 [Compound C90, 3-(2,3-dichlorophenyl)-1-(4-{[4-fluoro-2-(trifluoromethyl)phenyl]carbonyl}piperazinyl)prop-2-yn-1-one]
23 | < 100 | O=C(C#Cc1cccc(Cl)c1)N1CCN(C(c2ccccc2)c2ccccc2)CC1 [Compound C92, 1-[4-(diphenylmethyl)piperazinyl]-3-(3-chlorophenyl)prop-2-yn-1-one]
24 | < 100 | O=C(/C=C/c1ccc(F)cc1)N1CCN(S(=O)(=O)/C=C/c2ccccc2)CC1 [Compound C95]
25 | < 100 | O=C(/C=C/c1ccc(F)cc1)N1CCN(S(=O)(=O)c2ccc(Cl)cc2)CC1 [Compound C96, (2E)-1-{4-[(4-chlorophenyl)sulfonyl]piperazinyl}-3-(4-fluorophenyl)prop-2-en-1-one]
26 | < 100 | COc1ccc2[nH]c(C(=O)N3CCN(C(c4ccccc4)c4ccccc4)CC3)cc2c1 [Compound C97, 4-(diphenylmethyl)piperazinyl 5-methoxyindol-2-yl ketone]
27 | < 100 | CCCCC(=O)N1CCN(C(=O)/C=C/c2ccc(Br)cc2)CC1 [Compound C98, (2E)-3-(4-bromophenyl)-1-(4-pentanoylpiperazinyl)prop-2-en-1-one]
28 | < 100 | O=C(/C=C/c1ccccc1)N1CCN(C(=O)/C=C/c2ccccc2)CC1 [Compound C99, (2E)-1-[4-((2E)-3-phenylprop-2-enoyl)piperazinyl]-3-phenylprop-2-en-1-one]
29 | < 100 | O=C(/C=C/c1ccc(F)cc1)N1CCN(S(=O)(=O)c2ccccc2Br)CC1 [Compound C100, (2E)-1-{4-[(2-bromophenyl)sulfonyl]piperazinyl}-3-(4-fluorophenyl)prop-2-en-1-one]
30 | < 100 | N#Cc1ccc(C(=O)N2CCN(C(=O)c3cc4cc(C(F)(F)F)ccc4[nH]3)CC2)cc1 [Compound C102, 4-[(4-{[5-(trifluoromethyl)indol-2-yl]carbonyl}piperazinyl)carbonyl]benzenecarbonitrile]
31 | < 100 | O=C(c1cc2ccc(Cl)cc2[nH]1)N1CCN(C(c2ccccc2)c2ccccc2)CC1 [Compound C104, 4-(diphenylmethyl)piperazinyl 6-chloroindol-2-yl ketone]
